Data on 11 molecules can be found in paper PMC6651548, “Synthesis and AChE Inhibitory Activity of Novel Thiazolylhydrazone Derivatives” (Molecules, 2019).

The target in one experiment is AChE (Homo sapiens, UniProt P22303). The experiment is described as follows: biochemical. Conditions: for inhibition at 1000 µM: 10^−3 M; for IC50: 10^−3–10^−9 M concentrations; for inhibition at 100 µM: 10^−4 M.
In the next experiment the target is BChE (Homo sapiens, UniProt P06276). The experiment is described as follows: Anticholinesterase activity assay (modified Ellman method), BChE. It is filed as biochemical. Conditions: for inhibition at 1000 µM: 10^−3 M; for inhibition at 100 µM: 10^−4 M. On the procedure:
. Initially, all the obtained compounds were tested at 10^−3 M and 10^−4 M concentrations and the ChE inhibitory results are outlined in Table 1. […]. Compounds 3a, 3c and 3i indicated more than 50% activity at the 10^−4 M concentration. […]. […] According to the results of activity tests, some general results can be listed as follows. The compounds 3a, 3c and 3i contain the non-substituted, methoxy and trifluoromethyl substituents on the phenyl ring, respectively. […]
The inhibitory capacity of the obtained compounds on AChE and BChE biological activities was assessed using a modified Ellman’s spectrometric method, as described in our previous studies. Donepezil were used as a reference drug. All pipetting procedures in the enzyme inhibition assay were carried out via a robotics system, Biotek Precision XS (Winooski, VT, USA). A BioTek-Synergy H1 microplate reader (Winooski, VT, USA) was used to carry out measurements of percent inhibition at 412 nm, and the IC50 values of the selected compounds were performed as previously described.

The target in a further experiment is T1, hMAO-A (Homo sapiens, UniProt P21397).
T1 construct: purchased Sigma-Aldrich (Steinheim, Germany)
T1 sequence (P21397 1-527): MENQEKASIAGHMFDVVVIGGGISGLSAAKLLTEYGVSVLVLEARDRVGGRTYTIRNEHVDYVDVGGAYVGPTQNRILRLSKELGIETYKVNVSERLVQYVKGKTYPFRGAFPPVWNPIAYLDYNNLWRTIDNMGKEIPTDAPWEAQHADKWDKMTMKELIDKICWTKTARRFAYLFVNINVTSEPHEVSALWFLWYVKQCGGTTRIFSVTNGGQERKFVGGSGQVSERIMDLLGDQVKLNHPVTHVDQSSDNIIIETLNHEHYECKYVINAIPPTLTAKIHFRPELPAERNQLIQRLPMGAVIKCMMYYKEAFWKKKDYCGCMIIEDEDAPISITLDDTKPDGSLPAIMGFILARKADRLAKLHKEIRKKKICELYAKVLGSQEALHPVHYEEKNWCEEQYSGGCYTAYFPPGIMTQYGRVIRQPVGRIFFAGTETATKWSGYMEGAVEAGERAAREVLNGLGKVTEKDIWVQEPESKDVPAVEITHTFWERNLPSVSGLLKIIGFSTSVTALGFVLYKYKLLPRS
The experiment in a line: Monoamine oxidase fluorometric inhibition assay, MAO-A. The format is biochemical. As to conditions: for inhibition at 1000 µM: 10^−3 M; for inhibition at 100 µM: 10^−4 M. As to the method: In order to investigate the monoamine oxidase enzyme inhibitory effects of synthesized compounds, MAO-A and MAO-B enzyme activities were performed by using a fluorometric inhibition method. Moclobemide and selegiline were used as standard drugs for MAO-A and MAO-B enzymes, respectively. Test compounds and standard drugs were used in the same concentrations as in AChE and BChE enzyme activity assays. In Table 2, MAO enzyme inhibitory results are given. […]. To investigate the MAO-A and MAO-B enzyme inhibition profiles of the synthesized compounds, the fluorometric enzyme inhibition assay was carried out, as previously defined by us. Ampliflu™ Red (10-Acetyl-3,7-dihydroxyphenoxazine) was used as a fluorescence reagent in this assay.

A further experiment concerns the target T2, hMAO-B (Homo sapiens, UniProt P27338).
T2 construct: purchased Sigma-Aldrich (Steinheim, Germany)
T2 sequence (P27338 1-520): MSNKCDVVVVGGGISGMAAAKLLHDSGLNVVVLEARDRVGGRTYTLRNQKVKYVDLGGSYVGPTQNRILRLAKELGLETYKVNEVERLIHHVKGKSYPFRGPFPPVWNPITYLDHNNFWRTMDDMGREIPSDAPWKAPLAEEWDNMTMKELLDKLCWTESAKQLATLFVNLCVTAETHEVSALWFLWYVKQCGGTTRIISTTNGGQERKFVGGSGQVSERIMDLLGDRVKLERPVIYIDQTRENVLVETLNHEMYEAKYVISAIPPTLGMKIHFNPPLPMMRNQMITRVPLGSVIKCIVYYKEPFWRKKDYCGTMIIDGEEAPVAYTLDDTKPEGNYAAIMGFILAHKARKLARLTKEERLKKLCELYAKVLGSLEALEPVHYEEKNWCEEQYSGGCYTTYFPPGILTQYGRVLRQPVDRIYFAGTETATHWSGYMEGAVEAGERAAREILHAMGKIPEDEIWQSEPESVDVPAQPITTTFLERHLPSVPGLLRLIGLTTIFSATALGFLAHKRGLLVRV
The experiment is described as follows: biochemical. As to conditions: for inhibition at 1000 µM: 10^−3 M; for inhibition at 1000 µM / inhibition at 100 µM: read-out: MAO-B % Inhibition; for inhibition at 100 µM: 10^−4 M; for IC50: read-out: MAO-B IC50. As to the method: Test compounds and standard drugs were used in the same concentrations as in AChE and BChE enzyme activity assays. […] To investigate the MAO-A and MAO-B enzyme inhibition profiles of the synthesized compounds, the fluorometric enzyme inhibition assay was carried out, as previously defined by us. Ampliflu™ Red (10-Acetyl-3,7-dihydroxyphenoxazine) was used as a fluorescence reagent in this assay.

Sequence of AChE (P22303 32-614): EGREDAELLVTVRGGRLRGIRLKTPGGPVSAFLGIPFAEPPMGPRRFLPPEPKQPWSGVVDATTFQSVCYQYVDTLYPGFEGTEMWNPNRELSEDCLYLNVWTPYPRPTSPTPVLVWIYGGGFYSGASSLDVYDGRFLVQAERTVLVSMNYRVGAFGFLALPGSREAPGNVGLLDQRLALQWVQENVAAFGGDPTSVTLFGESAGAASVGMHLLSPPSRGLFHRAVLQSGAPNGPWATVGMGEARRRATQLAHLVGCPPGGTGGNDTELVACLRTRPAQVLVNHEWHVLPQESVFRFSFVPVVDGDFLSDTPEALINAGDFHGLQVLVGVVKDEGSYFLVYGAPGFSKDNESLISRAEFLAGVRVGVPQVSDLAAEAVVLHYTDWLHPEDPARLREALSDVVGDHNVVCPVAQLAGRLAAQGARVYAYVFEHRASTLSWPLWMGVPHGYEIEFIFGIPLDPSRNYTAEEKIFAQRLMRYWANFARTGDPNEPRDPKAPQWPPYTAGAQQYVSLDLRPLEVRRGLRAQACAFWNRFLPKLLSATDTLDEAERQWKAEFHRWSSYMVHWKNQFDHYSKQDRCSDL
Sequence of BChE (P06276 29-602): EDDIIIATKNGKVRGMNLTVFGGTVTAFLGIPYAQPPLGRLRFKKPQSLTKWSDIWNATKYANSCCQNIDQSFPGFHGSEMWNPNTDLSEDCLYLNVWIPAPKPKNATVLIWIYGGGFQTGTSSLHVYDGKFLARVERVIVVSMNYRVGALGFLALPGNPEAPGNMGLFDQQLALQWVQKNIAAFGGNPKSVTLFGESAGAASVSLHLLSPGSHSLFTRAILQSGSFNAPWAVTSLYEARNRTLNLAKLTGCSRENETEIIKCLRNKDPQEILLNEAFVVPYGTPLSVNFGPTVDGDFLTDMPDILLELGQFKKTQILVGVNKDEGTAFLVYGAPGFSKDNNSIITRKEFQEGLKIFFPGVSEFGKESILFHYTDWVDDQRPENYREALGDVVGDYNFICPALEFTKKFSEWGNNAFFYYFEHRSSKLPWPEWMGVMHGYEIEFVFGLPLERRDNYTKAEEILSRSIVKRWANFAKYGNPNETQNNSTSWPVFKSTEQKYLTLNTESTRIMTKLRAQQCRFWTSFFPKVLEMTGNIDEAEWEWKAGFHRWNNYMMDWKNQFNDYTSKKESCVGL

For `Fc1ccc(N2CCN(c3ccc(C=NNc4nc(-c5ccccc5)cs4)cc3)CC2)cc1` [Compound 3a, 2-(2-(4-(4-(4-fluorophenyl)piperazin-1-yl)benzylidene)hydrazineyl)-4-phenylthiazole], the inhibition at 1000 µM was 84.2 ± 0.89% at AChE, 21.5 ± 0.38% on BChE, 38.2 ± 0.95% on hMAO-A and 78.2 ± 1.05% on hMAO-B. Further, the concentration for half-maximal inhibition (IC50) came out at 49.6 ± 2 nM against AChE and 2110 ± 86 nM on hMAO-B. Moreover, the inhibition at 100 µM on BChE worked out at 19.3 ± 0.28%; on hMAO-A it was 20.1 ± 0.63%; at hMAO-B, 70.2 ± 0.99%.

As for `Cc1ccc(-c2csc(NN=Cc3ccc(N4CCN(c5ccc(F)cc5)CC4)cc3)n2)cc1` [Compound 3b, 2-(2-(4-(4-(4-fluorophenyl)piperazin-1-yl)benzylidene)hydrazineyl)-4-(p-tolyl)thiazole], the inhibition at 1000 µM against AChE came to 75.3 ± 1.05%; on BChE, 37.4 ± 0.67%; on hMAO-A, 44.2 ± 1.08%; at hMAO-B, 60.8 ± 1.11%. Also, the inhibition at 100 µM at AChE is 45.9 ± 0.88%; at BChE it was 25.3 ± 0.58%; against hMAO-A, 25.8 ± 0.8%; on hMAO-B, 46.7 ± 0.98%.

In the case of `O=[N+]([O-])c1ccc(-c2csc(NN=Cc3ccc(N4CCN(c5ccc(F)cc5)CC4)cc3)n2)cc1` [Compound 3d, 2-(2-(4-(4-(4-fluorophenyl)piperazin-1-yl)benzylidene)hydrazineyl)-4-(4-nitrophenyl)thiazole], the inhibition at 1000 µM against AChE came to 76.7 ± 1.12%; on BChE, 35.4 ± 0.49%; at hMAO-A it was 51 ± 0.97%; on hMAO-B, 75.7 ± 1.06%. The inhibition at 100 µM at AChE amounted to 38.5 ± 0.76%; at BChE, 31.9 ± 0.56%; on hMAO-A it was 39.1 ± 0.71%; at hMAO-B, 65.2 ± 0.97%. For the same molecule, the IC50 at hMAO-B stood at 5200 ± 153 nM.

For `N#Cc1ccc(-c2csc(NN=Cc3ccc(N4CCN(c5ccc(F)cc5)CC4)cc3)n2)cc1` [Compound 3e, 4-(2-(2-(4-(4-(4-fluorophenyl)piperazin-1-yl)benzylidene)hydrazineyl)thiazol-4-yl)benzonitrile], the inhibition at 1000 µM is 71.2 ± 0.9% against AChE, 31.8 ± 0.61% on BChE, 47.2 ± 0.88% against hMAO-A and 58.1 ± 0.9% on hMAO-B. In addition, the inhibition at 100 µM is 42.3 ± 0.63% against AChE, 24.9 ± 0.38% at BChE, 23.5 ± 0.6% on hMAO-A and 43.1 ± 0.71% at hMAO-B.

As to `Fc1ccc(-c2csc(NN=Cc3ccc(N4CCN(c5ccc(F)cc5)CC4)cc3)n2)cc1` [Compound 3f, 4-(4-fluorophenyl)-2-(2-(4-(4-(4-fluorophenyl)piperazin-1-yl)benzylidene)hydrazineyl)thiazole], the inhibition at 1000 µM against AChE turned out to be 78.4 ± 1.04%; at BChE it was 28.2 ± 0.42%; at hMAO-A it was 30.1 ± 0.47%; at hMAO-B, 57.3 ± 1.03%. Besides, the inhibition at 100 µM on AChE came out at 48.1 ± 0.87%; on BChE, 20.4 ± 0.35%; against hMAO-A it was 19.3 ± 0.41%; at hMAO-B, 39.2 ± 0.79%.

For `Fc1ccc(N2CCN(c3ccc(C=NNc4nc(-c5ccc(Cl)cc5)cs4)cc3)CC2)cc1` [Compound 3g, 4-(4-chlorophenyl)-2-(2-(4-(4-(4-fluorophenyl)piperazin-1-yl)benzylidene)hydrazineyl)thiazole], the inhibition at 1000 µM against AChE is 64.5 ± 0.67%; on BChE, 38.54 ± 0.35%; at hMAO-A, 48.2 ± 0.97%; on hMAO-B, 68.1 ± 1.12%. Moreover, the inhibition at 100 µM is 37.8 ± 0.6% against AChE, 20.2 ± 0.35% on BChE, 30.2 ± 0.5% on hMAO-A and 41.8 ± 0.86% at hMAO-B.

As for `Fc1ccc(N2CCN(c3ccc(C=NNc4nc(-c5ccc(Br)cc5)cs4)cc3)CC2)cc1` [Compound 3h, 4-(4-bromophenyl)-2-(2-(4-(4-(4-fluorophenyl)piperazin-1-yl)benzylidene)hydrazineyl)thiazole], the inhibition at 1000 µM amounted to 75.3 ± 1.06% against AChE, 40.6 ± 0.68% on BChE, 34.2 ± 0.58% on hMAO-A and 68.9 ± 1.25% at hMAO-B. For the same molecule, the inhibition at 100 µM on AChE is 47.1 ± 0.74%; on BChE it was 35.5 ± 0.41%; against hMAO-A, 22.2 ± 0.47%; on hMAO-B it was 39.1 ± 0.63%.

`Fc1ccc(N2CCN(c3ccc(C=NNc4nc(-c5ccc(C(F)(F)F)cc5)cs4)cc3)CC2)cc1` [Compound 3i, 2-(2-(4-(4-(4-fluorophenyl)piperazin-1-yl)benzylidene)hydrazineyl)-4-(4-(trifluoromethyl)phenyl)thiazole]: the inhibition at 1000 µM against AChE amounted to 80.7 ± 1.02%; at BChE, 45.4 ± 0.52%; on hMAO-A, 38.2 ± 0.78%; at hMAO-B, 59.1 ± 0.77%. The midpoint of inhibition on AChE, the IC50, lay at 216 ± 10 nM. In addition, the inhibition at 100 µM against AChE is greater than 50%; at BChE it was 35.4 ± 0.39%; against hMAO-A, 22.8 ± 0.54%; at hMAO-B, 40.2 ± 0.58%.

Turning to `Cc1ccc(-c2csc(NN=Cc3ccc(N4CCN(c5ccc(F)cc5)CC4)cc3)n2)c(C)c1` [Compound 3j, 4-(2,4-dimethylphenyl)-2-(2-(4-(4-(4-fluorophenyl)piperazin-1-yl)benzylidene)hydrazineyl)thiazole], the inhibition at 1000 µM on AChE turned out to be 53.8 ± 0.62%; on BChE, 31.9 ± 0.47%; against hMAO-A, 48.2 ± 0.88%; at hMAO-B, 69.2 ± 1.2%. The inhibition at 100 µM on AChE was 26.9 ± 0.55%; on BChE, 25.7 ± 0.49%; against hMAO-A, 40.2 ± 0.52%; on hMAO-B it was 40.8 ± 0.92%.

Turning to `Fc1ccc(N2CCN(c3ccc(C=NNc4nc(-c5ccc(Cl)cc5Cl)cs4)cc3)CC2)cc1` [Compound 3k, 4-(2,4-dichlorophenyl)-2-(2-(4-(4-(4-fluorophenyl)piperazin-1-yl)benzylidene)hydrazineyl)thiazole], the inhibition at 1000 µM came to 35.7 ± 0.57% at AChE, 28.59 ± 0.25% at BChE, 35.2 ± 0.48% against hMAO-A and 55.1 ± 0.92% at hMAO-B. The inhibition at 100 µM against AChE came out at 20.4 ± 0.3%; at BChE it was 21 ± 0.61%; against hMAO-A, 19.1 ± 0.4%; at hMAO-B it was 34.2 ± 0.81%.

At hMAO-A, `O=C(NCCN1CCOCC1)c1ccc(Cl)cc1` [Moclobemide, reference compound] gave an inhibition at 1000 µM of 91.2 ± 2.8% and an inhibition at 100 µM of 78.2 ± 2.55%.
